Reference: patent EP0305086A2, “Antibiotic A80577 and process for its production” (ELI LILLY AND COMPANY, priority 1987, dated 1989)

Tested on: Actinomadura verrucosospora A80577
Assay: Resistance of the producing culture to antibiotic sensitivity discs on seeded ISP No. 2 agar plates
Assay type: cell-based
Settings: culture A80577 on ISP No. 2 agar
Method: Resistance to antibiotics was measured by padding antibiotic sensitivity discs onto the surface of seeded ISP No. 2 agar plates.
A80577 was resistant to: bacitracin 10 units, cephalothin 30 µg, lincomycin 2 µg, oleandomycin 15 µg, penicillin G 10 units, rifampin 5 µg, and tetracycline 30 µg. It was sensitive to: gentamicin 10 µg, neomycin 30 µg, streptomycin 10 µg, tobramycin 10 µg and vancomycin 30 µg.

CC(=O)OCC1=C(C(=O)O)N2C(=O)[C@@H](NC(=O)Cc3cccs3)[C@H]2SC1 [cephalothin]
Resistance to antibiotics (sensitivity disc) (disc 30 µg): resistant

CCC[C@@H]1C[C@@H](C(=O)N[C@@H]([C@H]2O[C@H](SC)[C@H](O)[C@@H](O)[C@H]2O)[C@@H](C)O)N(C)C1 [lincomycin]
Resistance to antibiotics (sensitivity disc) (disc 2 µg): resistant

CO[C@H]1C[C@H](O[C@H]2[C@H](C)[C@@H](O[C@@H]3O[C@H](C)C[C@H](N(C)C)[C@H]3O)[C@@H](C)C[C@@]3(CO3)C(=O)[C@H](C)[C@@H](O)[C@@H](C)[C@@H](C)OC(=O)[C@@H]2C)O[C@@H](C)[C@@H]1O [oleandomycin]
Resistance to antibiotics (sensitivity disc) (disc 15 µg): resistant

CC1(C)S[C@@H]2[C@H](NC(=O)Cc3ccccc3)C(=O)N2[C@H]1C(=O)O [penicillin G]
Resistance to antibiotics (sensitivity disc) (disc 10 units): resistant

CO[C@H]1/C=C/O[C@@]2(C)Oc3c(C)c(O)c4c(O)c(c(/C=N/N5CCN(C)CC5)c(O)c4c3C2=O)NC(=O)/C(C)=C\C=C\[C@H](C)[C@H](O)[C@@H](C)[C@@H](O)[C@@H](C)[C@H](OC(C)=O)[C@@H]1C [rifampin]
Resistance to antibiotics (sensitivity disc) (disc 5 µg): resistant

[H]/N=C(/N)N[C@H]1[C@H](O)[C@@H](O)[C@H](O[C@@H]2O[C@@H](C)[C@](O)(C=O)[C@H]2O[C@@H]2O[C@@H](CO)[C@H](O)[C@@H](O)[C@@H]2NC)[C@@H](N/C(N)=N\[H])[C@@H]1O [streptomycin]
Resistance to antibiotics (sensitivity disc) (disc 10 µg): sensitive

NC[C@H]1O[C@H](O[C@H]2[C@H](O)[C@@H](O[C@H]3O[C@H](CO)[C@@H](O)[C@H](N)[C@H]3O)[C@H](N)C[C@@H]2N)[C@H](N)C[C@@H]1O [tobramycin]
Resistance to antibiotics (sensitivity disc) (disc 10 µg): sensitive

CN[C@H](CC(C)C)C(=O)N[C@H]1C(=O)N[C@@H](CC(N)=O)C(=O)N[C@H]2C(=O)N[C@H]3C(=O)N[C@H](C(=O)N[C@H](C(=O)O)c4cc(O)cc(O)c4-c4cc3ccc4O)[C@H](O)c3ccc(c(Cl)c3)Oc3cc2cc(c3O[C@@H]2O[C@H](CO)[C@@H](O)[C@H](O)[C@H]2O[C@H]2C[C@](C)(N)[C@H](O)[C@H](C)O2)Oc2ccc(cc2Cl)[C@H]1O [vancomycin]
Resistance to antibiotics (sensitivity disc) (disc 30 µg): sensitive

bacitracin
Resistance to antibiotics (sensitivity disc) (disc 10 units): resistant

gentamicin
Resistance to antibiotics (sensitivity disc) (disc 10 µg): sensitive

neomycin
Resistance to antibiotics (sensitivity disc) (disc 30 µg): sensitive
